# Measurements: ChEMBL document CHEMBL1275552, “In vitro activities at pH 5.0 and pH 7.0 and in vivo efficacy of flucytosine against Aspergillus fumigatus” (Antimicrob Agents Chemother, 2008)
# The source made the active and inactive calls. The calls are words filed in the database; no cut-off is given here.
# Legend:
# [1] = tested on: Aspergillus fumigatus; assay: Antifungal activity against flucytosine-resistant Aspergillus fumigatus isolate AZN 58 infected in CD-1 mouse at 200 mg/kg administered every 12 hrs; assay type: functional, organism-based; parameters: dose 200 mg/kg
# [2] = tested on: Aspergillus fumigatus; assay: Antifungal activity against Aspergillus fumigatus at pH 5.0 by broth microdilution method; assay type: functional
# [3] = Half life in CD-1 mouse at 800 mg/kg; assay type: ADME, organism-based; parameters: dose 800 mg/kg; conditions: in vivo
# [4] = tested on: Aspergillus fumigatus; assay: Antifungal activity against flucytosine-resistant Aspergillus fumigatus isolate AZN 58 infected in CD-1 mouse at 100 mg/kg administered every 12 hrs; assay type: functional, organism-based; parameters: dose 100 mg/kg
# [5] = tested on: Aspergillus sp.; assay: Antifungal activity against Aspergillus sp. by broth microdilution method; assay type: functional
# [6] = tested on: Aspergillus fumigatus; assay: Antifungal activity against flucytosine-resistant Aspergillus fumigatus isolate AZN 58 infected in CD-1 mouse at 200 mg/kg administered every 6 hrs; assay type: functional, organism-based; parameters: dose 200 mg/kg
# [7] = tested on: Aspergillus fumigatus; assay: Antifungal activity against flucytosine-susceptible Aspergillus fumigatus isolate AZN 58 infected in CD-1 mouse assessed as prolongation of survival at 200 mg/kg administered every 6 hrs; assay type: functional, organism-based; parameters: dose 200 mg/kg
# [8] = tested on: Aspergillus fumigatus; assay: Antifungal activity against flucytosine-resistant Aspergillus fumigatus isolate AZN 58 infected in CD-1 mouse at 100 mg/kg administered every 6 hrs; assay type: functional, organism-based; parameters: dose 100 mg/kg
# [9] = tested on: Aspergillus fumigatus; assay: Antifungal activity against flucytosine-susceptible Aspergillus fumigatus isolate AZN 58 infected in CD-1 mouse assessed as prolongation of survival at 100 mg/kg administered every 12 hrs; assay type: functional, organism-based; parameters: dose 100 mg/kg
# [10] = Half life in human; assay type: ADME, organism-based; conditions: in vivo
# [11] = tested on: Aspergillus fumigatus; assay: Antifungal activity against flucytosine-susceptible Aspergillus fumigatus isolate AZN 58 infected in CD-1 mouse assessed as prolongation of survival at 100 mg/kg administered every 6 hrs; assay type: functional, organism-based; parameters: dose 100 mg/kg
# [12] = tested on: Aspergillus fumigatus; assay: Antifungal activity against flucytosine-susceptible Aspergillus fumigatus isolate AZN 58 infected in CD-1 mouse assessed as prolongation of survival at 200 mg/kg administered every 12 hrs; assay type: functional, organism-based; parameters: dose 200 mg/kg
# [13] = tested on: Aspergillus fumigatus; assay: Antifungal activity against Aspergillus fumigatus at pH 7.0 by broth microdilution method; assay type: functional
structure (smiles),measurement,setting,value
Nc1nc(=O)[nH]cc1F [FLUCYTOSINE],Activity,[1],inactive
same,MIC,[2],0.125 µg/mL
same,half-life,[3],0.5 h
same,Activity,[4],inactive
same,MIC,[5],> 64 µg/mL
same,Activity,[6],inactive
same,Activity,[7],Active
same,Activity,[8],inactive
same,Activity,[9],Active
same,half-life,[10],2.5 h
same,Activity,[11],Active
same,Activity,[12],Active
same,MIC,[13],128 µg/mL
